Assay results published in patent publication US11046716B2, “Beta-lactamase inhibitors” (priority 2015, dated 2021).

Experiments:
KPC-2 = molecular target: T1, KPC-2 (Klebsiella pneumoniae, UniProt Q9F663); experiment: β-lactamase enzyme inhibition assay, KPC-2 (imipenem substrate); type: biochemical; settings: Class A; imipenem substrate, 300 nm; read-out: KPC-2
T1 construct: made in house; host or cells: E. coli BL21(DE3)
Method: (§1) For SHV-5, Kpc-2, p99AmpC and OXA-1 β-lactamases, E. coli BL21(DE3) bacterial cells carrying expression plasmids (expressed as native untagged proteins) for the individual β-lactamases were grown in 1 L of Superbroth (Teknova Inc. Hollister, Calif.) supplemented with 100 μg/ml kanamycin selection and 1×5052 (0.5% glycerol, 0.05% glucose and 0.2% α-lactose) at 35° C. for 18-20 hours. Cells were harvested by centrifugation (4,000×g, 4° C., 20 min), resuspended in 50 ml of 10 mM HEPES pH 7.5 ( 1/20 of the initial volume). The cells were lysed by sonication (5 pulses of 45 seconds) at 45 W on ice. The lysates were clarified by centrifugation at 10,000×g for 40 minutes at 4° C. Samples were diluted 5-fold in 50 mM sodium acetate pH 5.0, stored overnight at 4° C., after which they were centrifuged at 10,000×g for 30 minutes to clarify, and filtered through 0.45 μm filters. The samples were loaded onto a 5 ml Capto S sepharose cation exchange column (GE Healthcare) pre-equilibrated with 50 mM sodium acetate pH 5.0. The column was washed with 5 column volumes of 50 mM sodium acetate pH 5.0 to wash out unbound protein and a linear gradient of NaCl (0 to 500 mM) was used to elute the protein (over 16 CV) from the column. Fractions were assayed for β-lactamase activity using Centa (Calbiochem, Gibbstown, N.J.) or Nitrocefin (EMD Millipore chemicals, Darmstadt, Germany) as a reporter β-lactamase substrate for activity in the isolated fractions. Active fractions were pooled, concentrated and further purified by gel filtration chromatography on a Superdex 75 prep grade gel filtration column (GE Healthcare, Piscataway, N.J.) pre-equilibrated in 50 mM Hepes pH 7.5, 150 mM NaCl. Active fractions were pooled concentrated, quantitated by BCA protein determination (Thermo Scientific, Rockford, Ill.), dialyzed into PBS and frozen at −80° C. in 20% glycerol until use.
(§2) An equal volume of diluted enzyme stock was added, and the plates were incubated at 37° C. for 15 min. Nitrocefin was used as substrate for p99 AmpC, VIM-2 and OXA-1 and dispensed into each well at a final concentration of 100 μM. Absorbance at 486 nm was immediately monitored for 10 min using a Biotek Powerwave XS2 microplate spectrophotometer using the GEN5 software package (Biotek Instruments, Winooski Vt.). In an analogous fashion, imipenem was used as substrate for Kpc-2 and Cefotaxime was used for SHV-5, while changes in absorbance upon hydrolysis of the β-lactam ring were monitored at 300 nm and 260 nm respectively in UV-transparent 96-well microtiter assay plates. Maximum rates of hydrolysis were compared to those in control wells (without inhibitors), and percentages of enzyme inhibition were calculated for each concentration of inhibitor. The concentration of inhibitor needed to reduce the initial rate of hydrolysis of substrate by 50% (IC50) was calculated as the residual activity of β-lactamase at 486 nm using GraFit version 7 kinetics software package (Erithacus Software, Surrey, UK).
(§3) Using the methodology described above, examples of the current invention were evaluated for their ability to inhibit β-lactamase enzymes from all four Ambler classifications (A through D). […] NT=Not tested.

[1] = test system: K. pneumoniae producing the Class D carbapenemase OXA-48; experiment: Broth microdilution MIC assay with meropenem, K. pneumoniae OXA-48; type: cell-based; settings: Fixed Mero (meropenem) 4 μg/mL; K. p. 11978 OXA-48
Excerpt: (§4) To determine the ability of test compounds to potentiate the inhibition of the growth of bacterial strains that produce beta-lactamase enzymes in the presence of a β-lactam antibiotic, classic cell based broth microdilution MIC assays were employed. Six bacteria strains producing beta-lactamase enzymes were used: E. coli expressing the Class A Extended Spectrum Beta-Lactamase (ESBL) CTX-M-15, E. cloacae expressing the Class C P99, K. pneumoniae expressing the Class A carbapenemase KPC-2, P. aeruginosa expressing the Class B carbapenemase VIM-2, K. pneumoniae expressing the class A carbapenemase KPC-2 and the class B carbapenemase VIM-4, and K. pneumoniae producing the Class D carbapenemase OXA-48. The assay was conducted in Cation Adjusted Mueller Hinton Broth (CAMHB, BD #212322, BD Diagnostic Systems, Sparks, Md.). Bacteria strains were grown for 3-5 hours in CAMBH broth. Test compounds (Examples 1-94) were added to a microtiter plate in 2-fold serial dilutions in CAMHB in a final concentration range of 16 μg/mL to 0.125 μg/ml. An overlay of CAMHB containing a Beta-lactam was added to the compounds at a final static concentration of 4 μg/ml. […] In addition to the titration of test compounds the MICs of a panel of control beta-lactams is also tested to ensure the strains are behaving consistently from test to test. Once the test compound and antibiotics are added the plates can be inoculated according to CLSI broth microdilution method. After inoculation the plates are incubated for 16-20 hours at 37° C. then the Minimal Inhibitory Concentration (MIC) of the test compound is determined visually.
(§5) Using the methodology described above, examples of the current invention were evaluated for their ability to inhibit the growth of β-lactamase-producing bacteria in the presence of a β-lactam antibiotic.

OXA-48 = OXA-48 (UniProt Q6XEC0); experiment: β-lactamase enzyme inhibition assay, Class D oxacillinase; type: biochemical; settings: read-out: OXA-48
[2] = test system: K. pneumoniae expressing the Class A carbapenemase KPC-2; experiment: Broth microdilution MIC assay with meropenem, K. pneumoniae KPC-2; type: cell-based; settings: Fixed Mero (meropenem) 4 μg/mL; K. p. 156319 KPC-3
Excerpt: as §4, §5

[3] = test system: E. coli expressing the Class A Extended Spectrum Beta-Lactamase (ESBL) CTX-M-15; experiment: Broth microdilution MIC assay with ceftazidime, E. coli CTX-M-15; type: cell-based; settings: Fixed CAZ (ceftazidime) 4 μg/mL; E. coli ESBL4 CTX-M-15
Excerpt: as §4, §5

[4] = test system: P. aeruginosa expressing the Class B carbapenemase VIM-2; experiment: Broth microdilution MIC assay with meropenem, P. aeruginosa VIM-2; type: cell-based; settings: Fixed Mero (meropenem) 4 μg/mL; P. aerug. 2775 VIM-2
Excerpt: as §4, §5

VIM-2 = molecular target: T2, VIM-2 (Escherichia coli, UniProt Q5U7L7); experiment: β-lactamase enzyme inhibition assay, VIM-2 (nitrocefin substrate); type: biochemical; settings: Class B; nitrocefin substrate, 486 nm; read-out: VIM-2
T2 construct: made in house; host or cells: E. coli BL21(DE3)
Method: For Vim-2 metallo β-lactamase, the procedure was identical with the following exceptions, first the protein was not pH adjusted to pH 5 with 50 mM sodium acetate, second, the chromatography step was changed to a 5 ml Q sepharose anion exchange column pre-equilibrated with 50 mM Hepes pH 7.5, and elution of the protein was achieved by a linear gradient of NaCl (0-600 mM). Finally, the VIM-2 purification required a second run (3rd step) on the Q sepharose anion exchange column to achieve acceptable purity (>90%).
as §2, §3

AmpC = molecular target: T3, AmpC (Enterobacter cloacae, UniProt P05364); experiment: β-lactamase enzyme inhibition assay, p99 AmpC (nitrocefin substrate); type: biochemical
T3 construct: made in house; host or cells: E. coli BL21(DE3)
T3 sequence (P05364 21-381): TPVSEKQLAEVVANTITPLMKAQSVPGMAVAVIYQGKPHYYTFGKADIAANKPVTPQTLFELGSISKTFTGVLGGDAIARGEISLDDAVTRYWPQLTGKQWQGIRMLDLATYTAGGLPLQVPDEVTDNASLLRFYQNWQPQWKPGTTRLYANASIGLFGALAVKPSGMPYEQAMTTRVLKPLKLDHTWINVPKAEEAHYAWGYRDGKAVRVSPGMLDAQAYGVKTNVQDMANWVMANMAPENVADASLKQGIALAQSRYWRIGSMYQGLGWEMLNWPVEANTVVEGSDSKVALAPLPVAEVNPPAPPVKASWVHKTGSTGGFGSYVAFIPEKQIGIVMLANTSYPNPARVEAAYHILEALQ
Method: as §1, §2, §3

[5] = test system: K. pneumoniae expressing the class A carbapenemase KPC-2 and the class B carbapenemase VIM-4; experiment: Broth microdilution MIC assay with meropenem, K. pneumoniae KPC-2 and VIM-4; type: cell-based; settings: Fixed Mero (meropenem) 4 μg/mL; K. p. A-1797 KPC-2 VIM-4
Excerpt: as §4, §5

SHV-5 = molecular target: T4, SHV-5 (Klebsiella pneumoniae, UniProt P0A3M1); experiment: β-lactamase enzyme inhibition assay, SHV-5 (cefotaxime substrate); type: biochemical
T4 construct: made in house; host or cells: E. coli BL21(DE3)
T4 sequence (P0A3M1 22-286): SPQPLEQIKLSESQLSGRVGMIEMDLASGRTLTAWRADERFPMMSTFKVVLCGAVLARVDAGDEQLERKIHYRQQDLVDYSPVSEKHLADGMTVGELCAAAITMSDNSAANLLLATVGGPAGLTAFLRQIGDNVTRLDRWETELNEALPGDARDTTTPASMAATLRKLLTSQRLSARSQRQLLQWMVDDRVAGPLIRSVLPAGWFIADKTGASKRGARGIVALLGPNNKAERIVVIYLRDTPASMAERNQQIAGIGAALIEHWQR
Method: as §1, §2, §3

T1 sequence (Q9F663 25-293, looked up): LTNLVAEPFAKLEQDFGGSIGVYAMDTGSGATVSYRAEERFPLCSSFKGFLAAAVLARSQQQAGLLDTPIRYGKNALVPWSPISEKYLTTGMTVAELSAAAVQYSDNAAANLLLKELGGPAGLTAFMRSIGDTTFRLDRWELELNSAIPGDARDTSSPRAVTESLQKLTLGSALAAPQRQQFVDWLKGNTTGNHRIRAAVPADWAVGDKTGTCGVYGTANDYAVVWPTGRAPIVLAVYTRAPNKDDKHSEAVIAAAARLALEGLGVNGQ

SMILES | IC50 (KPC-2) | MIC (μg/mL) of Exemplary Compounds in presence of fixed β-lactams: K. p. 11978 OXA-48 [1] | IC50 (OXA-48) | MIC (μg/mL) of Exemplary Compounds in presence of fixed β-lactams: K. p. 156319 KPC-3 [2] | MIC (μg/mL) of Exemplary Compounds in presence of fixed β-lactams: E. coli ESBL4 CTX-M-15 [3] | MIC (μg/mL) of Exemplary Compounds in presence of fixed β-lactams: P. aerug. 2775 VIM-2 [4] | IC50 (VIM-2) | IC50 (AmpC) | MIC (μg/mL) of Exemplary Compounds in presence of fixed β-lactams: K. p. A-1797 KPC-2 VIM-4 [5] | IC50 (SHV-5)
NCCn1cc(CC(=O)N[C@H]2Cc3cccc(C(=O)O)c3OB2O)nn1 [Example 122, (R)-3-(2-(1-(2-aminoethyl)-1H-1,2,3-triazol-4-yl)acetamido)-2-hydroxy-3,4-dihydro-2H-benzo[e][1,2]oxaborinine-8-carboxylic acid] | < 100 nM | B (B represents an MIC between 1 and 16 μg/mL inclusive) | 100 to 1000 nM | B (B represents an MIC between 1 and 16 μg/mL inclusive) | C (C represents an MIC of <1 μg/mL) | C (C represents an MIC of <1 μg/mL) | 100 to 1000 nM | < 100 nM | B (B represents an MIC between 1 and 16 μg/mL inclusive) | < 100 nM
O=C(Cn1cc(CCO)nn1)N[C@H]1Cc2cccc(C(=O)O)c2OB1O [Example 5, (R)-2-hydroxy-3-(2-(4-(2-hydroxyethyl)-11,2,3-triazol-1-yl)acetamido)-3,4-dihydro-2H-benzo[e][1,2]oxaborinine-8-carboxylic acid] | < 100 nM | B (B represents an MIC between 1 and 16 μg/mL inclusive) | 100 to 1000 nM | B (B represents an MIC between 1 and 16 μg/mL inclusive) | C (C represents an MIC of <1 μg/mL) | B (B represents an MIC between 1 and 16 μg/mL inclusive) | 10000 to 100000 nM | < 100 nM | B (B represents an MIC between 1 and 16 μg/mL inclusive) | < 100 nM
O=C(Cn1cc(CF)nn1)N[C@H]1Cc2cccc(C(=O)O)c2OB1O [Example 111, (R)-3-(2-(4-(fluoromethyl)-1H-1,2,3-triazol-1-yl)acetamido)-2-hydroxy-3,4-dihydro-2H-benzo[e][1,2]oxaborinine-8-carboxylic acid] | < 100 nM | B (B represents an MIC between 1 and 16 μg/mL inclusive) | 100 to 1000 nM | B (B represents an MIC between 1 and 16 μg/mL inclusive) | C (C represents an MIC of <1 μg/mL) | B (B represents an MIC between 1 and 16 μg/mL inclusive) | 1000 to 10000 nM | < 100 nM | B (B represents an MIC between 1 and 16 μg/mL inclusive) | < 100 nM
NCCc1cn(CC(=O)N[C@H]2Cc3cccc(C(=O)O)c3OB2O)nn1 [Example 6, (R)-3-(2-(4-(2-aminoethyl)-1H-1,2,3-triazol-1-yl)acetamido)-2-hydroxy-3,4-dihydro-2H-benzo[e][1,2]oxaborinine-8-carboxylic acid] | < 100 nM | B (B represents an MIC between 1 and 16 μg/mL inclusive) | 1000 to 10000 nM | C (C represents an MIC of <1 μg/mL) | C (C represents an MIC of <1 μg/mL) | C (C represents an MIC of <1 μg/mL) | 1000 to 10000 nM | < 100 nM | B (B represents an MIC between 1 and 16 μg/mL inclusive) | 100 to 1000 nM
NCCCc1c(CN)nnn1CC(=O)N[C@H]1Cc2cccc(C(=O)O)c2OB1O [Example 110, (R)-3-(2-(4-(aminomethyl)-5-(3-aminopropyl)-1H-1,2,3-triazol-1-yl)acetamido)-2-hydroxy-3,4-dihydro-2H-benzo[e][1,2]oxaborinine-8-carboxylic acid] | 100 to 1000 nM | B (B represents an MIC between 1 and 16 μg/mL inclusive) | 100 to 1000 nM | C (C represents an MIC of <1 μg/mL) | C (C represents an MIC of <1 μg/mL) | C (C represents an MIC of <1 μg/mL) | < 100 nM | 100 to 1000 nM | C (C represents an MIC of <1 μg/mL) | 1000 to 10000 nM
